# Experimental data: ChEMBL document CHEMBL5042539, “Structure-Guided Discovery of the Novel Covalent Allosteric Site and Covalent Inhibitors of Fructose-1,6-Bisphosphate Aldolase to Overcome the Azole Resistance of Candidiasis” (J Med Chem, 2022)
# What was measured:
# Candida albicans [1] = test: Antifungal activity against fluconazole resistant Candida albicans 7781 incubated for 48 hrs by CLSI based broth microdilution method; type: functional
# [2] = Inhibition of wild type Candida albicans Fructose-1,6-Bisphosphate Aldolase transfected in Escherichia coli BL21 (DE3) incubated for 3 mins in presence of NADH by spectrophotometric analysis
# [3] = Inhibition of Candida albicans Fructose-1,6-Bisphosphate Aldolase C111S mutant transfected in Escherichia coli BL21 (DE3) incubated for 3 mins in presence of NADH by spectrophotometric analysis
# Candida albicans [4] = test: Antifungal activity against fluconazole resistant Candida albicans 904 incubated for 48 hrs by CLSI based broth microdilution method; type: functional
# [5] = Toxicity in po dosed rat assessed as lethal dose; type: organism-based; conditions: in vivo
# [6] = Inhibition of Candida albicans Fructose-1,6-Bisphosphate Aldolase C157S mutant transfected in Escherichia coli BL21 (DE3) incubated for 3 mins in presence of NADH by spectrophotometric analysis
# Candida albicans [7] = test: Selectivity ratio of IC50 for inhibition of Candida albicans Fructose-1,6-Bisphosphate Aldolase C292S mutant to IC50 for inhibition of wild type Candida albicans Fructose-1,6-Bisphosphate Aldolase
# Candida albicans [8] = test: Antifungal activity against Candida albicans SC5314 incubated for 48 hrs by CLSI based broth microdilution method; type: functional
# [9] = Inhibition of Candida albicans Fructose-1,6-Bisphosphate Aldolase C292S mutant transfected in Escherichia coli BL21 (DE3) incubated for 3 mins in presence of NADH by spectrophotometric analysis
# Candida albicans [10] = test: Antifungal activity against fluconazole resistant Candida albicans 103 incubated for 48 hrs by CLSI based broth microdilution method; type: functional
# [11] = Cytotoxicity against human HaCaT cells; type: toxicity, cell-based
# Candida albicans [12] = test: Inhibition of Candida albicans Fructose-1,6-Bisphosphate Aldolase C111S mutant transfected in Escherichia coli BL21 (DE3) assessed as Km by kinetic based analysis
# Candida albicans [13] = test: Inhibition of wild type Candida albicans Fructose-1,6-Bisphosphate Aldolase transfected in Escherichia coli BL21 (DE3) assessed as Kcat/Km by kinetic based analysis
# Candida albicans [14] = test: Inhibition of Candida albicans Fructose-1,6-Bisphosphate Aldolase C292S mutant transfected in Escherichia coli BL21 (DE3) assessed as Km by kinetic based analysis
# Candida albicans [15] = test: Binding affinity to Candida albicans Fructose-1,6-Bisphosphate Aldolase assessed as Kinact incubated for 12 to 40 mins by NADH-linked enzymatic assay; conditions: time 12-40 min
# [16] = Binding affinity to Candida albicans Fructose-1,6-Bisphosphate Aldolase assessed as inhibition constant incubated for 12 to 40 mins by NADH-linked enzymatic assay
# Candida albicans [17] = test: Inhibition of Candida albicans Fructose-1,6-Bisphosphate Aldolase C292S mutant transfected in Escherichia coli BL21 (DE3) at 500 uM incubated for 3 mins in presence of NADH by spectrophotometric analysis relative to control
# Candida albicans [18] = test: Inhibition of Candida albicans Fructose-1,6-Bisphosphate Aldolase C292S mutant transfected in Escherichia coli BL21 (DE3) assessed as Kcat by kinetic based analysis
# Candida albicans [19] = test: Inhibition of Candida albicans Fructose-1,6-Bisphosphate Aldolase C111S mutant transfected in Escherichia coli BL21 (DE3) assessed as Kcat/Km by kinetic based analysis
# Candida albicans [20] = test: Inhibition of Candida albicans Fructose-1,6-Bisphosphate Aldolase C157S mutant transfected in Escherichia coli BL21 (DE3) assessed as Kcat by kinetic based analysis
# Candida albicans [21] = test: Inhibition of wild type Candida albicans Fructose-1,6-Bisphosphate Aldolase transfected in Escherichia coli BL21 (DE3) assessed as Kcat by kinetic based analysis
# Candida albicans [22] = test: Inhibition of wild type Candida albicans Fructose-1,6-Bisphosphate Aldolase transfected in Escherichia coli BL21 (DE3) assessed as Km by kinetic based analysis
# Candida albicans [23] = test: Inhibition of Candida albicans Fructose-1,6-Bisphosphate Aldolase C111S mutant transfected in Escherichia coli BL21 (DE3) assessed as Kcat by kinetic based analysis
# Candida albicans [24] = test: Inhibition of Candida albicans Fructose-1,6-Bisphosphate Aldolase C157S mutant transfected in Escherichia coli BL21 (DE3) assessed as Km by kinetic based analysis
# Candida albicans [25] = test: Inhibition of Candida albicans Fructose-1,6-Bisphosphate Aldolase C157S mutant transfected in Escherichia coli BL21 (DE3) assessed as Kcat/Km by kinetic based analysis
# Candida albicans [26] = test: Inhibition of Candida albicans Fructose-1,6-Bisphosphate Aldolase C292S mutant transfected in Escherichia coli BL21 (DE3) assessed as Kcat/Km by kinetic based analysis
# Candida albicans [27] = test: Binding affinity to Candida albicans Fructose-1,6-Bisphosphate Aldolase assessed as ratio of kinact/Ki incubated for 12 to 40 mins by NADH-linked enzymatic assay; conditions: time 12-40 min
smiles,measurement,setting,value
O=c1c2ccccc2[se]n1-c1ccccc1 [EBSELEN],MIC80,Candida albicans [1],2 µg/mL
same,IC50,[2],0.0143 µM
same,IC50,[3],0.0726 µM
same,MIC80,Candida albicans [4],2 µg/mL
same,LD,[5],> 4600 mg/kg
same,IC50,[6],0.031 µM
same,Ratio IC50,Candida albicans [7],80.4
same,MIC80,Candida albicans [8],2 µg/mL
same,IC50,[9],1.15 µM
same,MIC80,Candida albicans [10],2 µg/mL
same,IC50,[11],> 32 µM
CCCCn1sc2ccccc2c1=O,Km,Candida albicans [12],25.1 µM
same,kcat/Km,Candida albicans [13],1.8e+06 M⁻¹ s⁻¹
same,Km,Candida albicans [14],45.7 µM
same,Kinact,Candida albicans [15],0.00178 s⁻¹
same,Ki,[16],5.96 µM
same,IC50,[2],17.7 µM
same,inhibition,Candida albicans [17],< 50%
same,kcat,Candida albicans [18],24.8 s⁻¹
same,IC50,[3],9.9 µM
same,kcat/Km,Candida albicans [19],1.4e+06 M⁻¹ s⁻¹
same,kcat,Candida albicans [20],34.7 s⁻¹
same,kcat,Candida albicans [21],38.6 s⁻¹
same,Km,Candida albicans [22],21.9 µM
same,kcat,Candida albicans [23],36.1 s⁻¹
same,IC50,[6],12.5 µM
same,Ratio IC50,Candida albicans [7],> 28.3
same,Km,Candida albicans [24],17.8 µM
same,IC50,[9],> 500 µM
same,kcat/Km,Candida albicans [25],2e+06 M⁻¹ s⁻¹
same,kcat/Km,Candida albicans [26],500000 M⁻¹ s⁻¹
same,Ratio,Candida albicans [27],300 M⁻¹ s⁻¹
